Laboratory results reported in patent US11945798B2, “Substituted aminopyridine compounds as EGFR inhibitors” (YUHAN CORPORATION, priority 2021, dated 2024).
Like-named read-outs stand apart in the source and are kept apart here.

Legend:
EGFR L858R/C797S = EGFR L858R/C797S (Homo sapiens, UniProt P00533, C797S/L858R); assay: Biochemical EGFR kinase assay (Lance Ultra TR-FRET), L858R/C797S
Method in brief: (§1)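 Step 1: compound in kinase buffer, 0.003–10 μM. Step 2: kinase reaction 1 h at room temperature. Step 4: TR-FRET read at 615/665 nm; IC50 calculated.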

EGFR wildtype (WT) = EGFR wildtype (WT) (Homo sapiens, UniProt P00533); assay: Biochemical EGFR kinase assay (Lance Ultra TR-FRET), wildtype
Method in brief: as §1

EGFR L858R/T790M/C797S = EGFR L858R/T790M/C797S (Homo sapiens, UniProt P00533, C797S/L858R/T790M); assay: Biochemical EGFR kinase assay (Lance Ultra TR-FRET), L858R/T790M/C797S
Method in brief: as §1

EGFR del19/C797S = EGFR del19/C797S (Homo sapiens, UniProt P00533, C797S/DEL746-750); assay: Biochemical EGFR kinase assay (Lance Ultra TR-FRET), del19/C797S
Method in brief: as §1

EGFR del19/T790M/C797S = EGFR del19/T790M/C797S (Homo sapiens, UniProt P00533, C797S/DEL746-750/T790M); assay: Biochemical EGFR kinase assay (Lance Ultra TR-FRET), del19/T790M/C797S
Method in brief: as §1

[1] = IC50 L858R/C797S (nM) 100 μM ATP, 100 μM ATP
[2] = IC50 WT (nM) 100 μM ATP, 100 μM ATP
[3] = Km ATP, read-out: IC50 WT (nM) Km ATP
[4] = IC50 L858R/T790M/C797S (nM) 100 μM ATP, 100 μM ATP
[5] = IC50 del19/C797S (nM) 100 μM ATP, 100 μM ATP
[6] = Km ATP, read-out: IC50 del19/C797S (nM) Km ATP
[7] = IC50 del19/T790M/C797S (nM) 100 μM ATP, 100 μM ATP
[8] = Km ATP, read-out: IC50 del19/T790M/C797S (nM) Km ATP
[9] = Km ATP, read-out: IC50 L858R/C797S (nM) Km ATP
[10] = Km ATP, read-out: IC50 L858R/T790M/C797S (nM) Km ATP

Chain of EGFR del19/C797S (P00533 with tags, fused parts or gaps DEL746-750/C797S): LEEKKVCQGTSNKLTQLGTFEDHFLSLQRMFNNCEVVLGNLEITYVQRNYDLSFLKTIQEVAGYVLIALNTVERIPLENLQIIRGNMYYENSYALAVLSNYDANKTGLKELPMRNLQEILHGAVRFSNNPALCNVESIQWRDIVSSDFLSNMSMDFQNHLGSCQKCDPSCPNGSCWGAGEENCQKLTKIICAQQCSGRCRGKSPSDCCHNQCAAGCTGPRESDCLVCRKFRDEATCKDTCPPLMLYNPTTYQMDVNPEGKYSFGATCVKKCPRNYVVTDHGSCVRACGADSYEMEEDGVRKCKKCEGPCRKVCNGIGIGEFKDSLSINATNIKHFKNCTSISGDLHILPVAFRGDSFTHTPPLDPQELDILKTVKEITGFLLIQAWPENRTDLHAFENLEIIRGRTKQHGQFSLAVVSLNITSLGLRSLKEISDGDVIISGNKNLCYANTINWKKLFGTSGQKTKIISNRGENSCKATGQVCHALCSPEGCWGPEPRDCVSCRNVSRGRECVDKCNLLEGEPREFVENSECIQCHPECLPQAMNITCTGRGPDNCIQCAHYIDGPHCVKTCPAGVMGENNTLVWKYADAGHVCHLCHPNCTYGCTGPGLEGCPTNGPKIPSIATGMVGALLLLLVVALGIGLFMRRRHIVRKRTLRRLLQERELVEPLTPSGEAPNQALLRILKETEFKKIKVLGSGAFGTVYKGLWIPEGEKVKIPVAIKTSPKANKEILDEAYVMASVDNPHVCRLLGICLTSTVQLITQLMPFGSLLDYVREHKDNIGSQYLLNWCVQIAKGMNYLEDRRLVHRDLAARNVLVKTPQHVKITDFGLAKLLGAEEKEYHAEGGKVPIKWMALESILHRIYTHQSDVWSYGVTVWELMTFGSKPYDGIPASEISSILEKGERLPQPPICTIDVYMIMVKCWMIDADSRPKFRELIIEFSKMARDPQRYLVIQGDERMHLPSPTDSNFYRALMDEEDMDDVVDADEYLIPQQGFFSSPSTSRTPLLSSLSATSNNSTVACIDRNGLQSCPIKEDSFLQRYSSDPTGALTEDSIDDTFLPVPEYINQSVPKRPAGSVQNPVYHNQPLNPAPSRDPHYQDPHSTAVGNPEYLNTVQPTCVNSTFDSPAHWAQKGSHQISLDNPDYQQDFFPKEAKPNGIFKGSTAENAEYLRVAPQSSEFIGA
Chain of EGFR L858R/C797S (P00533 25-1210 C797S/L858R): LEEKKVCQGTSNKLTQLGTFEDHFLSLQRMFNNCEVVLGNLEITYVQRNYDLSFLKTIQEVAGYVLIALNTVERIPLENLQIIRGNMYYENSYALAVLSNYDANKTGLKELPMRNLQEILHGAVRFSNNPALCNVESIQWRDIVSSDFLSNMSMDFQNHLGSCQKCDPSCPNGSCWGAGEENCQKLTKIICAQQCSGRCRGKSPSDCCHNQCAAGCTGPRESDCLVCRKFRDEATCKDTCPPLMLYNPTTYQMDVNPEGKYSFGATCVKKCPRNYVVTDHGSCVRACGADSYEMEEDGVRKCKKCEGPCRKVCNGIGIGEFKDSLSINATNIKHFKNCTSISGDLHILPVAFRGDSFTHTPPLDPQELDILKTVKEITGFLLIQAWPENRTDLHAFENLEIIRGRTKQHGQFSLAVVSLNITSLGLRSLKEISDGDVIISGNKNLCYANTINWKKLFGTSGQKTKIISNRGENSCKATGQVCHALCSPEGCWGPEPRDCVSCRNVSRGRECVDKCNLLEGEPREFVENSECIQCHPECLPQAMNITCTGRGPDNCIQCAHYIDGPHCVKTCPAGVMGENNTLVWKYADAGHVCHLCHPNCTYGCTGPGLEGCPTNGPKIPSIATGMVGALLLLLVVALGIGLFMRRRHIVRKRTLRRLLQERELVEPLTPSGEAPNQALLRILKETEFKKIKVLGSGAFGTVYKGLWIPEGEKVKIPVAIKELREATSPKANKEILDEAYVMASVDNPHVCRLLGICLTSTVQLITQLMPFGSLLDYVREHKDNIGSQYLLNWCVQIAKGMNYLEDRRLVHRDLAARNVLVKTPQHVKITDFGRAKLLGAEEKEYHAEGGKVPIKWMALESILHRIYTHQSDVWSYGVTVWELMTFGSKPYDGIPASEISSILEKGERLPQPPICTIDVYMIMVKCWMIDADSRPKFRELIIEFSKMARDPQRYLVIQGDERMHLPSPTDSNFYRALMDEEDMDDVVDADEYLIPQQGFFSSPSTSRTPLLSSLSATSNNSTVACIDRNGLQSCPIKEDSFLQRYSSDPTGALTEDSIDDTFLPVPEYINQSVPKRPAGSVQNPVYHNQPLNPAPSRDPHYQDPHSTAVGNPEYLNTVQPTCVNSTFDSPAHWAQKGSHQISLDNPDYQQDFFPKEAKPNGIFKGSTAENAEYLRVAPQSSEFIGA
Chain of EGFR del19/T790M/C797S (P00533 with tags, fused parts or gaps DEL746-750/T790M/C797S): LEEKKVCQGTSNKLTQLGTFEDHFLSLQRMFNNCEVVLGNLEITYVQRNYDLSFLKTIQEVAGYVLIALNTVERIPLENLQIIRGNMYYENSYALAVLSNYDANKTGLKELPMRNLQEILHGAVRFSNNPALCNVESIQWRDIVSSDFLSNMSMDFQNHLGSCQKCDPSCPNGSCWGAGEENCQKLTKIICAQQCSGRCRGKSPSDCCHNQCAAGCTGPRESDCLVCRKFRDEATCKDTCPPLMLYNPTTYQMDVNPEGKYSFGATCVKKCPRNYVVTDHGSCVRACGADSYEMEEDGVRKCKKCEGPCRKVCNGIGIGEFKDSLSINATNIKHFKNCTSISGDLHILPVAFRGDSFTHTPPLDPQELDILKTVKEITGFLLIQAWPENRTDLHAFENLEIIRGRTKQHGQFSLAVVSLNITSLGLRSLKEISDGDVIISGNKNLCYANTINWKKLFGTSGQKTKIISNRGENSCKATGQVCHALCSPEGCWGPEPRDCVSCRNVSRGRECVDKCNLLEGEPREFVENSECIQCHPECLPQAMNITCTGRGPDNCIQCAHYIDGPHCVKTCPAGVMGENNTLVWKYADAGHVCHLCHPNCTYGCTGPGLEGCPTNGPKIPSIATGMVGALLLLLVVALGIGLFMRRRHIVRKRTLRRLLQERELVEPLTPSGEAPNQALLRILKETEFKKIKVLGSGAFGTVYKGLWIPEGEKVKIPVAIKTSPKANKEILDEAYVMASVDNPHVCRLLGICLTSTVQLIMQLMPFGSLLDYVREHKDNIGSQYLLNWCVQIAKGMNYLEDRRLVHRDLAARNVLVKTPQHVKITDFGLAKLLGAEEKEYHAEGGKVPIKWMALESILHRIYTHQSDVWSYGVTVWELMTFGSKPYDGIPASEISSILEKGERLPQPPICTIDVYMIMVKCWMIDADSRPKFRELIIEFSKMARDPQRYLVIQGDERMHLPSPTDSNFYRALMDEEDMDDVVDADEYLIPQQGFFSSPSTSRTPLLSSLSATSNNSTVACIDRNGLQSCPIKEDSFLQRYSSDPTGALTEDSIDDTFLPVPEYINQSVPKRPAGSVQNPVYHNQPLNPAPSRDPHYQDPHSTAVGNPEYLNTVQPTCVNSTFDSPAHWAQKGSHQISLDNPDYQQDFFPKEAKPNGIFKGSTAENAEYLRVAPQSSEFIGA
Chain of EGFR wildtype (WT) (P00533 25-1210): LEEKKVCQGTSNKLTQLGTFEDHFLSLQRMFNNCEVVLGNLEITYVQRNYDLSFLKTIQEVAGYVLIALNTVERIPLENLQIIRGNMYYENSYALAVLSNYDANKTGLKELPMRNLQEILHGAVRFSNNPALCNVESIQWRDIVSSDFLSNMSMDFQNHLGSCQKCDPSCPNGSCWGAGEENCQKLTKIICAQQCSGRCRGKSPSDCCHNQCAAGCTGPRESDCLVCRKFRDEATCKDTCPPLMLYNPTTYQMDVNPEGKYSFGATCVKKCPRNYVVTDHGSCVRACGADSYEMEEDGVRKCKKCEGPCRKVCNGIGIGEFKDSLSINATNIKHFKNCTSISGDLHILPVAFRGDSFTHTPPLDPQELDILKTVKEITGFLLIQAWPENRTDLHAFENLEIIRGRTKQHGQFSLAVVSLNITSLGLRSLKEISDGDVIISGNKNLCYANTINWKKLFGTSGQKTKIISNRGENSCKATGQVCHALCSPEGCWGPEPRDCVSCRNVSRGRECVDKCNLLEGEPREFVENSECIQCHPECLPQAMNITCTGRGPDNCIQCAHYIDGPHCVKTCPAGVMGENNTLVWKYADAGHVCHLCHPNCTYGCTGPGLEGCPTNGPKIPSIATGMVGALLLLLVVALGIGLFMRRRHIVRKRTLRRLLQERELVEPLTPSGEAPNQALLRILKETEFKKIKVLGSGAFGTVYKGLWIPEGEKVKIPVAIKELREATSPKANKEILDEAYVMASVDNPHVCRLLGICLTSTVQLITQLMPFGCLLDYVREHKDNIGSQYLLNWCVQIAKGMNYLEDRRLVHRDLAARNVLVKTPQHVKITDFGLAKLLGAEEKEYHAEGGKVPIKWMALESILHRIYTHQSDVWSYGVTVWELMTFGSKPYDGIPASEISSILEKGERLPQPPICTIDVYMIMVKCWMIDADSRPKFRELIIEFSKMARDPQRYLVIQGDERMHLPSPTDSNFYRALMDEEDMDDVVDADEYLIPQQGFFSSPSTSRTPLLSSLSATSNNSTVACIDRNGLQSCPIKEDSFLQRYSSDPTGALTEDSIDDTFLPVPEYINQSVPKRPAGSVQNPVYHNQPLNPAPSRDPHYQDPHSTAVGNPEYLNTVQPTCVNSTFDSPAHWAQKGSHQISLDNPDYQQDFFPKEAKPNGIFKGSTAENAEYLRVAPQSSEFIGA

| Compound | IC50 (EGFR L858R/C797S; [1]) | IC50 (EGFR wildtype (WT); [2]) | IC50 (EGFR wildtype (WT); [3]) | IC50 (EGFR L858R/T790M/C797S; [4]) | IC50 (EGFR del19/C797S; [5]) | IC50 (EGFR del19/C797S; [6]) | IC50 (EGFR del19/T790M/C797S; [7]) | IC50 (EGFR del19/T790M/C797S; [8]) | IC50 (EGFR L858R/C797S; [9]) | IC50 (EGFR L858R/T790M/C797S; [10]) |
| --- | --- | --- | --- | --- | --- | --- | --- | --- | --- | --- |
| CC(C)Nc1cc(Nc2ccnc(-c3cnn(S(=O)(=O)C4CC4)c3)n2)ncc1C(=O)NCCF [Example 74, 6-((2-(1-(Cyclopropylsulfonyl)-1H-pyrazol-4-yl)pyrimidin-4-yl)amino)-N-(2-fluoroethyl)-4-(isopropylamino)nicotinamide] | 430 nM | > 10000 nM | 393 nM | 5.7 nM | 182 nM | 94.6 nM | 4.2 nM | 6.3 nM |  |  |
| C[C@]1(O)CC[C@@H](Nc2cc(Nc3ccnc(-c4cnn(S(=O)(=O)C5CC5)c4)n3)ncc2C(=O)NCCF)CC1 [Example 76, 6-((2-(1-(Cyclopropylsulfonyl)-1H-pyrazol-4-yl)pyrimidin-4-yl)amino)-N-(2-fluoroethyl)-4-(((1s,4s)-4-hydroxy-4-methylcyclohexyl)amino)nicotinamide] | 28.9 nM | > 10000 nM | 12 nM | 0.7 nM | 2.3 nM | 0.9 nM | 0.6 nM | 0.2 nM | 2.7 nM | 0.1 nM |
| O=C(NCCF)c1cnc(Nc2ccnc(-c3cnn(S(=O)(=O)C4CC4)c3)n2)cc1N[C@H]1CC[C@@H](NCCF)CC1 [Example 77, 6-((2-(1-(Cyclopropylsulfonyl)-1H-pyrazol-4-yl)pyrimidin-4-yl)amino)-N-(2-fluoroethyl)-4-(((1s,4s)-4-((2-fluoroethyl)amino)cyclohexyl)amino)nicotinamide] | 145 nM | > 10000 nM | 57.4 nM | 1.6 nM | 19.3 nM | 5.6 nM | 0.9 nM | 0.2 nM | 9 nM | 0.1 nM |
| O=C(N[C@H]1CC[C@H](O)CC1)c1cnc(Nc2ccnc(-c3cnn(S(=O)(=O)C4CC4)c3)n2)cc1N[C@H]1CC[C@@H](NCCF)CC1 [Example 80, 6-((2-(1-(Cyclopropylsulfonyl)-1H-pyrazol-4-yl)pyrimidin-4-yl)amino)-4-(((1s,4s)-4-((2-fluoroethyl)amino)cyclohexyl)amino)-N-((1r,4r)-4-hydroxycyclohexyl)nicotinamide] | 170 nM | > 10000 nM |  | 2.4 nM | 72.8 nM |  | 0.8 nM |  |  |  |
| CC1(CO)CCN(c2cc(Nc3ccnc(-c4cnn(S(=O)(=O)C5CC5)c4)n3)ncc2F)CC1 [Example 85, (1-(2-((2-(1-(Cyclopropylsulfonyl)-1H-pyrazol-4-yl)pyrimidin-4-yl)amino)-5-fluoropyridin-4-yl)-4-methylpiperidin-4-yl)methanol] | 903 nM | > 10000 nM |  | 21.5 nM | 146 nM |  | 9.4 nM |  |  |  |
| O=C(c1cnc(Nc2ccnc(-c3cnn(S(=O)(=O)C4CC4)c3)n2)cc1N[C@H]1CC[C@](O)(CO)CC1)C1CC1 [Example 86, Cyclopropyl(6-((2-(1-(cyclopropylsulfonyl)-1H-pyrazol-4-yl)pyrimidin-4-yl)amino)-4-(((1s,4s)-4-hydroxy-(4-hydroxymethyl)cyclohexyl)amino)pyridin-3-yl)methanone] | 52.9 nM | > 10000 nM | 47.6 nM | 0.3 nM | 2.9 nM | 1.9 nM | 0.2 nM | 0.2 nM | 4.3 nM | 0.1 nM |
| O=C(c1cnc(Nc2ccnc(-c3cnn(S(=O)(=O)C4CC4)c3)n2)cc1NC1CCC(F)(CO)CC1)C1CC1 (stereo not shown) [Example 87, Cyclopropyl(6-((2-(1-(cyclopropylsulfonyl)-1H-pyrazol-4-yl)pyrimidin-4-yl)amino)-4-((4-fluoro-4-(hydroxymethyl)cyclohexyl)amino)pyridin-3-yl)methanone] | 442 nM | > 10000 nM |  | 4.3 nM | 25.3 nM |  | 2.2 nM |  |  |  |
| CN[C@H]1CC[C@H](CNc2cc(Nc3ccnc(-c4cnn(S(=O)(=O)C5CC5)c4)n3)ncc2C(=O)C2CC2)CC1 [Example 88, Cyclopropyl(6-((2-(1-(cyclopropylsulfonyl)-1H-pyrazol-4-yl)pyrimidin-4-yl)amino)-4-((((1r,4r)-4-(methylamino)cyclohexyl)methyl)amino)pyridin-3-yl)methanone] | 30.7 nM | 3160 nM | 24.6 nM | 0.2 nM | 2.6 nM | 1.6 nM | 0.1 nM | 0.1 nM | 2.6 nM | 0.1 nM |
| CNC[C@H]1CC[C@H](CNc2cc(Nc3ccnc(-c4cnn(S(=O)(=O)C5CC5)c4)n3)ncc2C(=O)C2CC2)CC1 [Example 89, Cyclopropyl(6-((2-(1-(cyclopropylsulfonyl)-1H-pyrazol-4-yl)pyrimidin-4-yl)amino)-4-((((1r,4r)-4-((methylamino)methyl)cyclohexyl)methyl)amino)pyridin-3-yl)methanone] | 7.9 nM | 532 nM | 4.9 nM | 0.1 nM | 0.8 nM | 0.5 nM | 0.2 nM | 0.2 nM | 0.7 nM | 0.1 nM |
